Assay results as given in patent US20070270350A1, “Methods and Compositions for the Prevention and Treatment of Inflammatory Diseases or Conditions” (MUSC FOUNDATION FOR RESEARCH DEVELOPMENT, priority 2003, published 2007).

Legend:
AMPK = experiment: Phosphorylation of AMPK and ACC in primary astrocytes (immunoblot); format: cell-based, rat
Experimental: Immunoblot Analysis: Cells were harvested in ice-cold lysis buffer (50 mM Tris-HCl, pH 7.4, containing 50 mM NaCl, 1 mM EDTA, 0.5 mM EGTA, 10% glycerol and protease inhibitor cocktail) and protein was estimated using Bradford reagent (Bio-Rad, USA). Fifty microgram of total protein/lane was separated by SDS-PAGE and blotted to nitrocellulose (Amersham Pharmacia Biotech). Blots were blocked for 1 h in 5% nonfat dry milk-TBS-0.1% Tween 20 and incubated overnight with primary antibody (1:1000) in 5% BSA-TBS-0.1% Tween 20 at 4° C. This was followed by incubation of 1 h with appropriate secondary peroxidase conjugated antibody (1:10,000, Sigma). Immunoreactivity was detected using the enhanced chemiluminescence detection method according to the manufacturer's instructions (Amersham Pharmacia Biotech) and subsequent exposure of the membrane to X-ray film.
Antisense experiments: To decrease the levels of endogenous AMPK, astrocytes were pretreated for 48 h with 25 μm (of phosphothiorated antisense (AS) oligonucleotide (5′ […]-3′) directly against both the ? α1 and α2 ? subunits of AMPK (Culmsee et al., 2001) ? ? ? missense (MS) oligonucleotide (5′ […]-3′) was used in control cultures. Oligonucleotides were transfected with Oligofectamine™ reagent as per manufacturer's instructions.
AMPK and IKKα/ ? assays: AMPK activity was assayed in primary rat astrocytes as described (Kim et al., 2001). […]

iNOS = experiment: LPS-induced iNOS expression and iNOS promoter activity in primary astrocytes (AICAR); format: cell-based, rat
Experimental: Immunoblot Analysis: Cells were harvested in ice-cold lysis buffer (50 mM Tris-HCl, pH 7.4, containing 50 mM NaCl, 1 mM EDTA, 0.5 mM EGTA, 10% glycerol and protease inhibitor cocktail) and protein was estimated using Bradford reagent (Bio-Rad, USA). Fifty microgram of total protein/lane was separated by SDS-PAGE and blotted to nitrocellulose (Amersham Pharmacia Biotech). Blots were blocked for 1 h in 5% nonfat dry milk-TBS-0.1% Tween 20 and incubated overnight with primary antibody (1:1000) in 5% BSA-TBS-0.1% Tween 20 at 4° C. This was followed by incubation of 1 h with appropriate secondary peroxidase conjugated antibody (1:10,000, Sigma). Immunoreactivity was detected using the enhanced chemiluminescence detection method according to the manufacturer's instructions (Amersham Pharmacia Biotech) and subsequent exposure of the membrane to X-ray film. Antisense experiments: To decrease the levels of endogenous AMPK, astrocytes were pretreated for 48 h with 25 μm (of phosphothiorated antisense (AS) oligonucleotide ([NT]) directly against both the ? α1 and α2 ? subunits of AMPK (Culmsee et al., 2001) ? ? ? missense (MS) oligonucleotide ([NT]) was used in control cultures. Oligonucleotides were transfected with OligofectamineTM reagent as per manufacturer's instructions. Northern blot, gene array analysis and RT-PCR for cytokines expression: Total RNA was extracted with Trizol (Gibco) according to the manufacturer's protocol. Northern blot for iNOS was performed with 15 μg of RNA per reaction as described previously (Pahan et al., 1997). β-actin was used as control for RNA loading. Gene expression array for inflammatory cytokines (TNFα, IL-1β, IL-6 and IFN-γ) was used according to the manufacturer's protocol (Superarray). Signal quantitation was determined using imaging densitomter (Bio-Rad Lab, Hercules, Calif.). For RT-PCR, RNA was isolated from treated rat brain cerebral cortex by extracting in Trizol as above. cDNA was prepared from 5 μg of total RNA using poly dT as a primer and Moloney murine leukemia virus reverse transcriptase (Promega) as per manufacturer's instructions. 2 μl of cDNA was used to amplify the following products [given as product name, expected size, and forward (F) and reverse (R) primers used]: iNOS, 730 bp. ([NT]-1β, 623 bp. ([…]-α, 473 bp. ([…], 528 bp. […] Transcriptional assays: Primary astrocytes or microglial cell line (BV2) were transiently transfected with NF- ? B-or iNOS-luciferase reporter gene with ? -galactosidase in the presence or absence of dominant negative AMPKα2 or HA-IKK ? by lipofectamine-2000 (astrocytes) and lipofectamine-Plus (BV2, Invitrogen) according to the manufacturer instructions. pcDNA3 was used to normalize all groups to equal amounts of DNA. Luciferase activity was determined using a luciferase kit (Promega).

[1] = tested on: rat model of focal cerebral ischemia (MCAO); experiment: Focal cerebral ischemia model (20 min MCAO, reperfusion); format: in vivo; details: GSH up to 150 mg/kg body weight after the onset of ischemia
Experimental: Animals. A total of 60 male Sprague-Dawley rats (Charles River Laboratories, Wilmington, Mass.) weighing 250-300 g were used in this study. All animals received humane care in compliance with the Medical University of South Carolina's guidance and the National Research Council's criteria for humane care as outlined in ‘Guide for the Care and Use of Laboratory Animals’. Body temperature was monitored by a rectal probe and maintained at 37±0.5° C. by a homeothermic blanket control unit (Harvard Apparatus, Holliston, Mass.). Cranial temperature and mean arterial blood pressure were measured by HSE Plugsys TAM-D and TCAM (Harvard Apparatus) respectively.
Experimental design and administration of drugs. All animal procedures were approved by the Medical University of South Carolina Animal Review Committee and were in accordance with the guidelines for animal use published by the National Institute of Health. […]
Measurement of physiological variables. The physiological variables were measured before, during MCA occlusion, at reperfusion and 30 min after reperfusion. The rectal temperature was monitored and maintained at about 37 to 37.6° C. […]
Evaluation of ischemic infarct and neurological score. […] The infarct area, outlined in white, was acquired by image-analysis software (Photoshop 4.0 Adobe System) and measured by NIH image software. […]

[2] = X-ALD patients; cited from earlier work

5′ CGCCCGTCGTCGTGCTTCTGC-3′ (phosphorothioate, further chemistry not given here) [antisense (AS), phosphothiorated antisense oligonucleotide against the α1 and α2 subunits of AMPK]
catalytic subunit AMPKα1 level (immunoblot) (AMPK; 25 μM antisense, 48 h): decreased
LPS mediated iNOS protein expression (iNOS; AMPK antisense 25 μM, then LPS 1 μg/ml): significantly induced

Nc1ncnc2c1c(I)cn2[C@@H]1O[C@H](CO)[C@@H](O)[C@H]1O [5-iodotubercidin]
effect on AICAR induced phosphorylation of AMPK and ACC (AMPK; adenosine kinase inhibitor 0.1 μM, 30 min before AICAR 1 mM): blocked
effect on inhibition induced by AICAR on iNOS protein expression (iNOS; adenosine kinase inhibitor with AICAR and LPS, 24 h): reverse the inhibition

N[C@@H](CCC(=O)N[C@@H](CS)C(=O)NCC(=O)O)C(=O)O [GSH, gamma-glutamylcysteinylglycine]
protective effect in ischemia [1]: no protective effect

CCCCCCCC/C=C\CCCCCCCC(=O)OCC(COC(=O)CCCCCCC/C=C\CCCCCCCC)OC(=O)CCCCCCC/C=C\CCCCCCCC [trioleate]
reduction of VLCFA [2]: 50%
